Entries after “also recorded” stand apart in the source; their conditions may differ.

Series [1] concerns C57Bl/6 male mice. The experiment in a line: In vivo aortic pulse wave velocity. Particulars: young mice, NMN 240 mg/kg/day, 8 weeks. An excerpt: (§1) Young (4-8 months) C57Bl/6 male mice were purchased from Charles River and old (26-28 months) C57Bl/6 male mice were obtained from the National Institute on Aging rodent colony. Mice were fed normal rodent chow ad libitum for the duration of the study. After an acclimation period of 2 weeks, the young and old mice were divided into two subgroups: control animals (YC, OC) continued on normal drinking water and the other animals (YNMN, ONMN) received nicotinamide mononucleotide (NMN; Sigma-Aldrich Corp., St. Louis, Mo., USA) supplementation in the drinking water (240 mg/kg/day) for 8 weeks. All mice were housed in an animal care facility at the University of Colorado Boulder on a 12:12 hour light-dark cycle. […]
Aortic pulse wave velocity (aPWV) was measured as described previously (Sindler A. L. et al. 2011, Aging Cell. 10, 429-437; Fleenor B. S. et al. 2012b, Exp Gerontol. 47, 588-594). […] Aortic blood flow velocity was measured with two Doppler probes placed at the transverse aortic arch and abdominal aorta, respectively. Pre-ejection time, the time between the R-wave of the ECG to foot of the Doppler signal, was determined for each site. aPWV was calculated by dividing the distance between the transverse and abdominal probes by the difference in the thoracic and abdominal pre-ejection times.

In series [2] the test system is SIRT1. Description: Western blot of aortic SIRT1 expression. Type of series: in vivo, mice. Particulars: NMN 8 weeks.
Source text: as §1
(§2) Aortas were used as a surrogate large elastic artery to provide sufficient tissue for analysis of protein expression by Western blot as described previously (Donato A. J. et al. 2013, J Physiol. 589, 4545-4554; Gano L. B. et al. 2014, Am J Physiol Heart Circ Physiol. 307, H1754-1763). […] Relative intensity was quantified using Image-J Software Version 1.0. […] The ratio of acetylated to total p65 was determined by running two identical Western blots. […] The ratio of acetylated to total p65 was determined for each animal and then normalized to the YC group mean.
In general terms: Immunoblotting shows a protein as a band on a membrane.

Series [3] relates to elastin. Description: Immunohistochemistry of aortic elastin. Type of series: in vivo. Particulars: old mice, NMN 8 weeks. The text has this: (§3) Young (4-8 months) C57Bl/6 male mice were purchased from Charles River and old (26-28 months) C57Bl/6 male mice were obtained from the National Institute on Aging rodent colony. Mice were fed normal rodent chow ad libitum for the duration of the study. After an acclimation period of 2 weeks, the young and old mice were divided into two subgroups: control animals (YC, OC) continued on normal drinking water and the other animals (YNMN, ONMN) received nicotinamide mononucleotide (NMN; Sigma-Aldrich Corp., St. Louis, Mo., USA) supplementation in the drinking water (240 mg/kg/day) for 8 weeks. All mice were housed in an animal care facility at the University of Colorado Boulder on a 12:12 hour light-dark cycle. All animal procedures conformed to the Guide to the Care and Use of Laboratory Animals (NIH publication No. 85-23, revised 1996) and were approved by the UCB Animal Care and Use Committee.
(§4) Immunohistochemistry was used to determine aortic expression of collagen type I and elastin as previously described (Fleenor B. S. et al. 2010 J Physiol. 588, 3971-3982). […] Digital photomicrographs were obtained using a Nikon Eclipse TS100 photomicroscope, and quantification was performed with Image-J Software Version 1.0. The adventitial and medial layers for each sample were quantified together for whole vessel expression. […]

Details of series [4]: species or system mice. Particulars: mouse, in vivo.
Source text: as §3
Data are presented as mean±SEM in text, figures and tables. All analyses were performed with SPSS. A one-way ANOVA (Analysis of Variance) was used to analyze morphological characteristics, maximum EDD, NO-mediated EDD, EPR spectroscopy, aPWV, elastic modulus, Western blots, and immunohistochemistry. Within-group differences in the maximal EDD dose response to acetylcholine in the absence vs. presence of TEMPOL was determined using two-factor (group×treatment) repeated-measures ANOVA. […]

Series [5] relates to collagen type I. The experiment in a line: Immunohistochemistry of aortic collagen type I. Type of series: in vivo. Conditions: old mice, NMN 8 weeks.
Source text: as §3, §4

Series [6] concerns superoxide. Description: Aortic superoxide production by EPR spectroscopy. Conditions: young mice, NMN 8 weeks. Type of series: in vivo.
Source text: as §3
Measurement of superoxide production in the thoracic aorta was performed using electron paramagnetic resonance (EPR) spectroscopy, as previously described (LaRocca T. J. et al. 2013, Mech Ageing Dev. 134, 314-320). […] The signal amplitude was analyzed using an MS300 X-band EPR spectrometer (Magnettech GmbH, Berlin, Germany) with the following settings: centrefield, 3350 G; sweep, 80 G; microwave modulation, 3000 mG, and microwave attenuation, 7 dB. […]

In series [7] the test system is nitrotyrosine. Description: Western blot of aortic nitrotyrosine abundance. Type of series: in vivo, mice. Conditions: NMN 8 weeks.
Source text: as §1, §2

In series [8] the target is T1, SIRT1 (Mus musculus, UniProt Q923E4).
T1 sequence (Q923E4 1-737): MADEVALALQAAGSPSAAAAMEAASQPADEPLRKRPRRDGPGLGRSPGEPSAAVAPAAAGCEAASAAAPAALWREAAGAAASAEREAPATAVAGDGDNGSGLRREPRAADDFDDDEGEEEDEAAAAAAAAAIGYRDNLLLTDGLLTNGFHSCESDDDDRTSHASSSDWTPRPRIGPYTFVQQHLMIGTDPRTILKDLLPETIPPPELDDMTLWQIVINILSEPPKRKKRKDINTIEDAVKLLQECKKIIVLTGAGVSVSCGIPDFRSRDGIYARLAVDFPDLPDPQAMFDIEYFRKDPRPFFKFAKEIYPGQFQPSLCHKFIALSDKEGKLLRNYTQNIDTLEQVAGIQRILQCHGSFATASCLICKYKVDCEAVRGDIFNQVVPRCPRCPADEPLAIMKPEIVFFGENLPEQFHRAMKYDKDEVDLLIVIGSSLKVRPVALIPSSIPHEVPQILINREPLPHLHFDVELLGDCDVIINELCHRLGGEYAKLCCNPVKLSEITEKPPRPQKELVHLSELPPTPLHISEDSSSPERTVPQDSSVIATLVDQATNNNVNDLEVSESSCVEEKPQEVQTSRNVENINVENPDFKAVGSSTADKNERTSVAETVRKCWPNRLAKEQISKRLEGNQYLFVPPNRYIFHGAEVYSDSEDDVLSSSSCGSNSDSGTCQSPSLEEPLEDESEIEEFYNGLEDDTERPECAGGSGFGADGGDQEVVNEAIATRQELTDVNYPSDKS
Description: SIRT1 activation by ratio of acetylated to total NFκB (p65 subunit) in aorta. Type of series: in vivo. On the set-up: Aortas were used as a surrogate large elastic artery to provide sufficient tissue for analysis of protein expression by Western blot; from tissue; host or cells: mouse aorta (C57Bl/6). Conditions: old mice, NMN 8 weeks.
Source text: as §1, §2

Series [9] deals with C57Bl/6 male mice. Description: Ex vivo carotid artery vasodilatory responses after NMN supplementation in drinking water.
The subject of series [10] is carotid arteries. Description: Ex vivo incubation of isolated carotid arteries with TEMPOL, EDD to acetylcholine. More on the design: species or system mice. Particulars: other groups (YC, YNMN, ONMN); TEMPOL 0.1 mM, 1 hour incubation. As to the method:
EDD and endothelium-independent dilation were determined ex vivo in isolated carotid arteries as previously described (Rippe C. et al. 2010, Aging Cell. 9, 304-312; Sindler A. L. et al. 2011, Aging Cell. 10, 429-437). Mice were anesthetized using isoflurane and euthanized by exsanguination via cardiac puncture. The carotid arteries were carefully excised, cannulated onto glass micropipette tips, and secured with nylon (11-0) sutures in individual myograph chambers (DMT Inc., Ann Arbor, Mich., USA) containing buffered physiological saline solutions. The arteries were pressurized to 50 mmHg at 37° C. and were allowed to equilibrate for 45 minutes before experimentation. After submaximal preconstriction with phenylephrine (2 μM), increases in luminal diameter in response to acetylcholine (ACh: 1×10^−9-1×10^−4 M; Sigma-Aldrich Corp.) with and without co-administration of the NO synthase inhibitor, L-NAME, 0.1 mM, 30 minute incubation; (Sigma-Aldrich Corp.) or the superoxide dismutase mimetic 4-Hydroxy-2,2,6,6-tetramethylpiperidine-1-oxyl (TEMPOL, 0.1 mM, 1 hour incubation; Sigma-Aldrich Corp.) were determined. Endothelium-independent dilation was determined by vasodilation in response to the NO donor sodium nitroprusside (SNP: […]-1×10^−4 M; Sigma-Aldrich Corp.).
All dose-response data are presented as percent dilation, i.e. FIGS. 1A, 1C and 2A. […]

The target of series [11] is T1, SIRT1. Particulars: in part by reducing oxidative stress (Gano et al. 2014); cited from earlier work.

`NC(=O)c1ccc[n+]([C@@H]2O[C@H](COP(=O)([O-])O)[C@@H](O)[C@H]2O)c1` [NMN, nicotinamide mononucleotide]: the “aortic pulse wave velocity (aPWV)” value in series [1] is “no significant effect”. In addition, the “aortic SIRT1 protein expression” value in series [2] (old mice) is reported as “tended to increase”; in series [2] (young mice), “increased”. Further, the arterial elastin expression entry in series [3] was “partially increased; also recorded: increased elastin to levels not significantly different from young mice”. For the same molecule, the “body mass across the four groups” value in series [4] is “no significant differences”. For the same molecule, the “arterial collagen type I expression” value in [5] is “reversed; also recorded: reduced arterial collagen type I to levels of young mice”. Also, the aortic superoxide production result in series [6] is on record as “no significant effect”. Moreover, the aortic nitrotyrosine abundance entry is given as “decreased; also recorded: markedly reduced” in series [7] (old mice) and “no significant effect” in series [7] (young mice). In addition, in series [8], the “vascular SIRT1 activity (ratio of acetylated to total p65 subunit of NFκB)” value is given as “restored”. For the same molecule, in [9] (young and old mice, NMN-treated vs controls), the “Endothelium-independent dilation to sodium nitroprusside” value is “not significantly different; also recorded: did not influence”. Further, the “EDD and NO-mediated dilation” value in [9] (young mice, NMN 240 mg/kg/day in drinking water, 8 weeks) is reported as “had no effect”.
As for `CC1(C)CC(O)CC(C)(C)N1[O]` [TEMPOL, 4-hydroxy-2,2,6,6-tetramethylpiperidin-1-oxyl], the “carotid artery EDD in presence of TEMPOL” value in series [10] is recorded as “no significant effect; also recorded: no significant improvement”.
Regarding `O=C(Nc1ccccc1-c1cn2c(CN3CCNCC3)csc2n1)c1cnc2ccccc2n1` [SRT1720], the “EDD in old mice” value in series [11] was “improves”.
